What was measured:
bluegrass = assay: Test D pre-/postemergence herbicide test; type: in vivo, Poa annua; conditions: for Plant response rating, Bluegrass: scale 0 to 100 (0 no effect, 100 complete control); for Plant response rating: Bluegrass, scale 0 to 100
Method in brief: (§1)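 Visual injury score, 0 (no effect) to 100 (complete control), taken 7–21 d post-treatment against untreated controls. Application was preemergence in silt loam and postemergence at 1- to 4-leaf stage, using a surfactant-containing non-phytotoxic solvent formulation.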

blackgrass = assay: Test D pre-/postemergence herbicide test; type: in vivo, Alopecurus myosuroides; conditions: for Plant response rating, Blackgrass: scale 0 to 100 (0 no effect, 100 complete control); for Plant response rating: Blackgrass, scale 0 to 100
Method in brief: as §1

pigweed = assay: Test D pre-/postemergence herbicide test; type: in vivo, Amaranthus retroflexus; conditions: for Plant response rating, Pigweed: Preemergence, scale 0 to 100 (0 no effect, 100 complete control); for Plant response rating: Postemergence, Pigweed, scale 0 to 100
Method in brief: as §1

buckwheat, wild = assay: Test D pre-/postemergence herbicide test; type: in vivo, Polygonum convolvulus; conditions: for Plant response rating, Buckwheat, Wild: scale 0 to 100 (0 no effect, 100 complete control); for Plant response rating: Buckwheat, Wild, scale 0 to 100
Method in brief: as §1

mustard, wild = assay: Test D pre-/postemergence herbicide test; type: in vivo, Sinapis arvensis; conditions: for Plant response rating, Mustard, Wild: scale 0 to 100 (0 no effect, 100 complete control); for Plant response rating: Mustard, Wild, scale 0 to 100
Method in brief: as §1

lambsquarters = assay: Test E preemergence herbicide test; type: in vivo, Chenopodium album; design: key: 0 = no effect, 100 = complete control
Method in brief: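 Seeds were sown in silt loam soil and treated preemergence with test chemicals in a non-phytotoxic solvent mixture containing a surfactant. Plants were kept in a greenhouse for 21 days, then visually rated against untreated controls on a 0–100 scale (0 = no effect, 100 = complete control).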

sandbur = assay: Test E preemergence herbicide test; type: in vivo, Cenchrus echinatus; design: key: 0 = no effect, 100 = complete control
From the text: Seeds of plant species selected from corn (Zea mays), soybean (Glycine max), velvetleaf (Abutilon theophrasti), lambsquarters (Chenopodium album), wild poinsettia (Euphorbia heterophylla), pigweed, palmer (palmer pigweed, Amaranthus palmeri), waterhemp (common waterhemp, Amaranthus rudis), surinam grass (Brachiaria decumbens), crabgrass, large (large crabgrass, Digitaria sanguinalis), crabgrass, Brazil (Brazilian crabgrass, Digitaria horizontalis), panicum, fall (fall panicum, Panicum dichotomiflorum), foxtail, giant (giant foxtail, Setaria faberii), foxtail, green (green foxtail, Setaria viridis), goosegrass (Eleusine indica), johnsongrass (Sorghum halepense), ragweed (common ragweed, Ambrosia elatior), barnyardgrass (Echinochloa crus-galli), sandbur (southern sandbur, Cenchrus echinatus), arrowleaf […] rhombifolia), ryegrass, Italian (Italian ryegrass, Lolium multiflorum), dayflower, VA (Virginia dayflower, Commelina virginica), field bindweed (Convolvulus arvensis), morningglory (Ipomoea coccinea), nightshade (eastern black nightshade, Solanum ptycanthum), kochia (Kochia scoparia), nutsedge, yellow (yellow nutsedge, Cyperus esculentus), cocklebur (common cocklebur, Xanthium strumarium), smartweed (ladysthumb smartweed, Polygonum Persicaria) and beggarticks (hairy beggarticks, Bidens pilosa), were planted into a silt loam soil and treated preemergence with test chemicals formulated in a non-phytotoxic solvent mixture which included a surfactant. Treated plants and controls were maintained in a greenhouse for 21 days, after which time all species were compared to controls and visually evaluated. Plant response ratings, summarized in Table E, are based on a scale of 0 to 100 where 0 is no effect and 100 is complete control. A dash (-) response means no test result.

For O=C1NC[C@H](c2cccc(C(F)(F)F)c2)[C@H]1C(=O)Nc1ccccc1F [Compound 204, (3R,4S)—N-(2-fluorophenyl)-2-oxo-4-[3-(trifluoromethyl)phenyl]-3-pyrrolidinecarboxamide], the “Plant response rating, Bluegrass” value (bluegrass; Preemergence, 62 g ai/ha) was 0, the “Plant response rating, Bluegrass” value (bluegrass; Preemergence, 125 g ai/ha) was 15 and the “Plant response rating, Bluegrass” value (bluegrass; Preemergence, 31 g ai/ha) was 0. The Plant response rating (bluegrass; Preemergence, 250 g ai/ha) was 35, the “Plant response rating, Blackgrass” value (blackgrass; Preemergence, 62 g ai/ha) was 10 and the “Plant response rating, Blackgrass” value (blackgrass; Preemergence, 125 g ai/ha) was 40. The “Plant response rating, Blackgrass” value (blackgrass; Preemergence, 31 g ai/ha) was 5, the Plant response rating (blackgrass; Preemergence, 250 g ai/ha) was 65 and the “Plant response rating, Pigweed” value (pigweed; 62 g ai/ha) was 5. The “Plant response rating, Pigweed” value (pigweed; 125 g ai/ha) was 35, the “Plant response rating, Pigweed” value (pigweed; 31 g ai/ha) was 0 and the “Plant response rating, Pigweed” value (pigweed; 250 g ai/ha) was 35. The “Plant response rating, Buckwheat, Wild” value (buckwheat, wild; Preemergence, 62 g ai/ha) was 25, the “Plant response rating, Buckwheat, Wild” value (buckwheat, wild; Preemergence, 125 g ai/ha) was 25 and the “Plant response rating, Buckwheat, Wild” value (buckwheat, wild; Preemergence, 31 g ai/ha) was 20. For the same compound, the Plant response rating (buckwheat, wild; Preemergence, 250 g ai/ha) was 25, the “Plant response rating, Mustard, Wild” value (mustard, wild; Preemergence, 62 g ai/ha) was 20 and the “Plant response rating, Mustard, Wild” value (mustard, wild; Preemergence, 125 g ai/ha) was 20. The “Plant response rating, Mustard, Wild” value (mustard, wild; Preemergence, 31 g ai/ha) was 0, the Plant response rating (mustard, wild; Preemergence, 250 g ai/ha) was 20 and the “Plant response rating, Lambsquarters” value (lambsquarters; 31 g ai/ha) was 98. The “Plant response rating, Lambsquarters” value (lambsquarters; 62 g ai/ha) was 98, the “Plant response rating, Lambsquarters” value (lambsquarters; 125 g ai/ha) was 90 and the “Plant response rating, Lambsquarters” value (lambsquarters; 250 g ai/ha) was 65. The “Plant response rating, Sandbur” value (sandbur; 31 g ai/ha) was 20, the “Plant response rating, Sandbur” value (sandbur; 62 g ai/ha) was 50 and the “Plant response rating, Sandbur” value (sandbur; 125 g ai/ha) was 75. The “Plant response rating, Sandbur” value (sandbur; 250 g ai/ha) was 80.
Work on O=C1NCC(c2ccc(C(F)(F)F)cc2)C1C(=O)Nc1cccc(F)c1F (centres unmarked) [Compound 80, N-(2,3-difluorophenyl)-2-oxo-4-[4-(trifluoromethyl)phenyl]-3-pyrrolidinecarboxamide] yielded a Plant response rating (bluegrass; Postemergence, 31 g ai/ha) of 5, a Plant response rating (bluegrass; Postemergence, 62 g ai/ha) of 10 and a Plant response rating (bluegrass; Postemergence, 125 g ai/ha) of 15. For the same compound, the Plant response rating (bluegrass; Postemergence, 250 g ai/ha) was 10, the “Plant response rating, Bluegrass” value (bluegrass; Preemergence, 62 g ai/ha) was 10 and the “Plant response rating, Bluegrass” value (bluegrass; Preemergence, 31 g ai/ha) was 0. It also gave a Plant response rating (bluegrass; Preemergence, 125 g ai/ha) of 20, a Plant response rating (bluegrass; Preemergence, 250 g ai/ha) of 45 and a Plant response rating (blackgrass; Postemergence, 31 g ai/ha) of 5. It also gave a Plant response rating (blackgrass; Postemergence, 62 g ai/ha) of 5, a Plant response rating (blackgrass; Postemergence, 125 g ai/ha) of 5 and a Plant response rating (blackgrass; Postemergence, 250 g ai/ha) of 5. For the same compound, the “Plant response rating, Blackgrass” value (blackgrass; Preemergence, 62 g ai/ha) was 10, the “Plant response rating, Blackgrass” value (blackgrass; Preemergence, 31 g ai/ha) was 5 and the Plant response rating (blackgrass; Preemergence, 125 g ai/ha) was 20. For the same compound, the Plant response rating (blackgrass; Preemergence, 250 g ai/ha) was 25, the Plant response rating (pigweed; 31 g ai/ha) was 40 and the Plant response rating (pigweed; 62 g ai/ha) was 70. For the same compound, the Plant response rating (pigweed; 125 g ai/ha) was 70, the Plant response rating (pigweed; 250 g ai/ha) was 75 and the “Plant response rating, Pigweed” value (pigweed; 62 g ai/ha) was 10. The “Plant response rating, Pigweed” value (pigweed; 125 g ai/ha) was 20, the “Plant response rating, Pigweed” value (pigweed; 31 g ai/ha) was 5 and the “Plant response rating, Pigweed” value (pigweed; 250 g ai/ha) was 45. The Plant response rating (buckwheat, wild; Postemergence, 31 g ai/ha) was 0, the Plant response rating (buckwheat, wild; Postemergence, 62 g ai/ha) was 10 and the Plant response rating (buckwheat, wild; Postemergence, 125 g ai/ha) was 0. The Plant response rating (buckwheat, wild; Postemergence, 250 g ai/ha) was 0, the “Plant response rating, Buckwheat, Wild” value (buckwheat, wild; Preemergence, 62 g ai/ha) was 0 and the “Plant response rating, Buckwheat, Wild” value (buckwheat, wild; Preemergence, 31 g ai/ha) was 0. It also gave a Plant response rating (buckwheat, wild; Preemergence, 125 g ai/ha) of 5, a Plant response rating (buckwheat, wild; Preemergence, 250 g ai/ha) of 15 and a Plant response rating (mustard, wild; Postemergence, 31 g ai/ha) of 70. For the same compound, the Plant response rating (mustard, wild; Postemergence, 62 g ai/ha) was 80, the Plant response rating (mustard, wild; Postemergence, 125 g ai/ha) was 85 and the Plant response rating (mustard, wild; Postemergence, 250 g ai/ha) was 85. The “Plant response rating, Mustard, Wild” value (mustard, wild; Preemergence, 62 g ai/ha) was 25, the “Plant response rating, Mustard, Wild” value (mustard, wild; Preemergence, 31 g ai/ha) was 0 and the Plant response rating (mustard, wild; Preemergence, 125 g ai/ha) was 65. The Plant response rating (mustard, wild; Preemergence, 250 g ai/ha) was 70, the “Plant response rating, Lambsquarters” value (lambsquarters; 16 g ai/ha) was 50 and the “Plant response rating, Lambsquarters” value (lambsquarters; 31 g ai/ha) was 80. For the same compound, the “Plant response rating, Lambsquarters” value (lambsquarters; 62 g ai/ha) was 85, the “Plant response rating, Lambsquarters” value (lambsquarters; 125 g ai/ha) was 90 and the “Plant response rating, Lambsquarters” value (lambsquarters; 250 g ai/ha) was 90. The “Plant response rating, Sandbur” value (sandbur; 16 g ai/ha) was 20, the “Plant response rating, Sandbur” value (sandbur; 31 g ai/ha) was 30 and the “Plant response rating, Sandbur” value (sandbur; 62 g ai/ha) was 50. For the same compound, the “Plant response rating, Sandbur” value (sandbur; 125 g ai/ha) was 65 and the “Plant response rating, Sandbur” value (sandbur; 250 g ai/ha) was 70.
Work on O=C1NCC(c2ccc(F)c(F)c2)C1C(=O)Nc1cccc(F)c1F (centres unmarked) [Compound 17, N-(2,3-difluorophenyl)-4-(3,4-difluorophenyl)-2-oxo-3-pyrrolidinecarboxamide] yielded a Plant response rating (bluegrass; Postemergence, 16 g ai/ha) of 0, a Plant response rating (bluegrass; Postemergence, 31 g ai/ha) of 0 and a Plant response rating (bluegrass; Postemergence, 62 g ai/ha) of 0. The Plant response rating (bluegrass; Postemergence, 125 g ai/ha) was 0, the Plant response rating (bluegrass; Postemergence, 250 g ai/ha) was 0 and the Plant response rating (blackgrass; Postemergence, 16 g ai/ha) was 0. The Plant response rating (blackgrass; Postemergence, 31 g ai/ha) was 0, the Plant response rating (blackgrass; Postemergence, 62 g ai/ha) was 0 and the Plant response rating (blackgrass; Postemergence, 125 g ai/ha) was 0. For the same compound, the Plant response rating (blackgrass; Postemergence, 250 g ai/ha) was 0, the Plant response rating (pigweed; 16 g ai/ha) was 0 and the Plant response rating (pigweed; 31 g ai/ha) was 0. For the same compound, the Plant response rating (pigweed; 62 g ai/ha) was 40, the Plant response rating (pigweed; 125 g ai/ha) was 50 and the Plant response rating (pigweed; 250 g ai/ha) was 50. It also gave a Plant response rating (buckwheat, wild; Postemergence, 16 g ai/ha) of 0, a Plant response rating (buckwheat, wild; Postemergence, 31 g ai/ha) of 0 and a Plant response rating (buckwheat, wild; Postemergence, 62 g ai/ha) of 0. For the same compound, the Plant response rating (buckwheat, wild; Postemergence, 125 g ai/ha) was 10, the Plant response rating (buckwheat, wild; Postemergence, 250 g ai/ha) was 20 and the Plant response rating (mustard, wild; Postemergence, 16 g ai/ha) was 0. It also gave a Plant response rating (mustard, wild; Postemergence, 31 g ai/ha) of 0, a Plant response rating (mustard, wild; Postemergence, 62 g ai/ha) of 10 and a Plant response rating (mustard, wild; Postemergence, 125 g ai/ha) of 30. The Plant response rating (mustard, wild; Postemergence, 250 g ai/ha) was 30, the “Plant response rating, Lambsquarters” value (lambsquarters; 16 g ai/ha) was 0 and the “Plant response rating, Lambsquarters” value (lambsquarters; 31 g ai/ha) was 0. For the same compound, the “Plant response rating, Lambsquarters” value (lambsquarters; 62 g ai/ha) was 0, the “Plant response rating, Lambsquarters” value (lambsquarters; 125 g ai/ha) was 0 and the “Plant response rating, Lambsquarters” value (lambsquarters; 250 g ai/ha) was 0. For the same compound, the “Plant response rating, Sandbur” value (sandbur; 16 g ai/ha) was 0, the “Plant response rating, Sandbur” value (sandbur; 31 g ai/ha) was 0 and the “Plant response rating, Sandbur” value (sandbur; 62 g ai/ha) was 50. The “Plant response rating, Sandbur” value (sandbur; 125 g ai/ha) was 65 and the “Plant response rating, Sandbur” value (sandbur; 250 g ai/ha) was 95.

— patent US10294202B2, “Pyrrolidinones as herbicides” (FMC Corporation, priority 2013, dated 2019)
